Target: T1, human HPK1 (MAP4K1) (Homo sapiens, UniProt Q92918)
T1 construct: Recombinant human HPK1 kinase domain was obtained from ThermoFisher (Cat. #PV6357) and SignalChem (Cat. #M23-11G); purchased ThermoFisher; SignalChem PV6357; M23-11G
T1 sequence (Q92918 17-274 limits assumed): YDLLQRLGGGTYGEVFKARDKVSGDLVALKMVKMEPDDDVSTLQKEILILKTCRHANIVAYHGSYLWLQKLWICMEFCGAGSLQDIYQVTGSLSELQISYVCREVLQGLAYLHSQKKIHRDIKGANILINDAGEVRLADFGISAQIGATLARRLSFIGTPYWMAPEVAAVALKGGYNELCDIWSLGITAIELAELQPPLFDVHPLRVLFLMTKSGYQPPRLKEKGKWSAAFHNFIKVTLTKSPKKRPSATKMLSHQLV
Assay: Biochemical assay for activity against HPK1 (ADP-Glo, MBP substrate)
Settings: recombinant human HPK1 kinase domain, 1 nM enzyme, ADP-Glo luminescence
Procedure, shortened: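 IC50s come from ADP-Glo luminescence after a 2 h room-temperature reaction phosphorylating MBP in the presence of ATP. Compound was first preincubated 15 min with 1 nM HPK1 kinase domain, human recombinant. Buffer: 50 mM HEPES pH 7.5, 150 mM NaCl, 3 mM TCEP, 10 mM MgCl2, 0.005% Tween-20, 0.01% BSA.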

COc1cc2c(cc1Nc1ncc3cnn(C[C@@H]4[C@@H](C)CCN4C(C)=O)c3n1)CN(CCO)CC2 [Example 223, 1-((2S,3S)-2-((6-((2-(2-hydroxyethyl)-6-methoxy-1,2,3,4-tetrahydroisoquinolin-7-yl)amino)-1H-pyrazolo[3,4-d]pyrimidin-1-yl)methyl)-3-methylpyrrolidin-1-yl)ethan-1-one]
IC50: < 100 nM

COc1cc2c(cc1Nc1ncc3cnn(C[C@@H]4CC[C@H](O)CN4C(C)=O)c3n1)CN(C)CC2 [Example 224, 1-((2S,5S)-5-hydroxy-2-((6-((6-methoxy-2-methyl-1,2,3,4-tetrahydroisoquinolin-7-yl)amino)-1H-pyrazolo[3,4-d]pyrimidin-1-yl)methyl)piperidin-1-yl)ethan-1-one]
IC50: < 100 nM

COc1cc2c(cc1Nc1ncc3cnn(C[C@@H]4CC[C@@H](O)CN4C(C)=O)c3n1)CN(C)CC2 [Example 225, 1-((2S,5R)-5-hydroxy-2-((6-((6-methoxy-2-methyl-1,2,3,4-tetrahydroisoquinolin-7-yl)amino)-1H-pyrazolo[3,4-d]pyrimidin-1-yl)methyl)piperidin-1-yl)ethan-1-one]
IC50: < 100 nM

— patent US11918582B2 (RAPT Therapeutics, Inc., priority 2021, dated 2024)
